From ChEMBL document CHEMBL3507680, “University of Dundee, Gates Library screen for HepG2 cell viability”

Assay: Human HepG2 cell viability assay in 384 well format
Assay type: toxicity, cell-based
Set-up: dose 125 nL, time 70.5 hour; concentration not given beside the values
Conditions: HepG2 cells, read-out: Inhibition

| SMILES | cytotoxicity at 70.5 h |
| --- | --- |
| COc1cccc(S(=O)(=O)N2CCCc3c(OC)nn(C)c3C2)c1 | -5.16% |
| O=C([C@H]1C[C@H]2OCC[C@H]2N(Cc2ccc(F)cc2)C1)N1CCCCO1 | 20.6% |
| Cc1occc1C(=O)N1CCC2(CC1)CC(c1cccnc1)C(=O)N2C (stereo not drawn) | -17.4% |
| O=C(NC[C@H]1C[C@@H]2CCN1C[C@@H]2CN1CCCCC1)Nc1ccsc1 | -16% |
| CN(C)CC(=O)N1CCOCC(Cc2ccccn2)C1 (stereo not drawn) | -13.2% |
| CCOC(=O)CNC(=O)c1cc(-c2ccccc2)nc2ncnn12 | 1.18% |
| CCN1Cc2cc(F)ccc2N(C(C)=O)CCC1=O | -3.82% |
| O=C1CC(c2cccc(Cl)c2)c2snc(C(=O)O)c2N1 (stereo not drawn) | -5.92% |
| Cc1cc(CN2CCN(C(=O)NC(C)Cn3cccn3)CC2)no1 (stereo not drawn) | -9.58% |
| Cn1ccnc1-c1nc(N2CCCCC2)ncc1-c1ccccc1F | -7.17% |
| Cc1cnc2n(c1=O)CC(C(=O)Nc1cccc3cccnc13)CS2 (stereo not drawn) | -5.53% |
| CN(C)C(=O)C1CCc2nnc(C(C)(C)C)n21 (stereo not drawn) | -3.32% |
| O[C@H]1[C@H](NCCc2cnccn2)c2ccccc2C12CCNCC2 | -3.75% |
| CN1CCN(Cc2cccnc2)C2(CCN(C3CCOCC3)C2)C1=O (stereo not drawn) | -5.52% |
| CC(CO)NC(=O)Nc1ccc(Cl)cc1OCC(F)(F)F (stereo not drawn) | -4.37% |
| Cc1cc(CN(C)C(=O)C2CC(=O)N(Cc3cccnc3)C2)on1 (stereo not drawn) | -9.4% |
| Fc1cccnc1Oc1cc(F)c(CN2CCCC2)c(Cl)c1 | 22.4% |
| COCC(=O)N1CCC(c2cc3nc(C)cc(C(F)(F)F)n3n2)CC1 | 25.3% |
| COc1cccc(OC)c1CN1CC(O)CN(S(C)(=O)=O)CC1=O (stereo not drawn) | 25.6% |
| CN1CC=C(CCN(C)C(=O)CCc2ccccc2)CC1 | -6.34% |
| CCN(Cc1ccncc1)C1CCCN(C/C=C/c2ccc(F)cc2)C1 (stereo not drawn) | -3.49% |
| c1cncc(-c2nnc(C3(c4ccc5c(c4)OCO5)CCOCC3)o2)c1 | -15.4% |
| O=C(c1ccncn1)N1CCO[C@H]2[C@@H](OCc3cccnc3)CC[C@@H]21 | -9.05% |

| SMILES | cytotoxicity at 70.5 h |
| --- | --- |
| COCCN(C)C[C@@H]1CN(Cc2ccnc3ccccc23)C[C@@H]1CO | -16.1% |
| Cc1nc2[nH]cnc(Nc3cnn(C)c3)c-2n1 | 0.28% |
| Cc1cccc(CN2CCN(C(=O)c3cnc(C)[nH]c3=O)CC2)c1 | 12.7% |
| O=C(Cc1ccccc1)N1CCC2(CCN2Cc2ccc(F)cc2)C1 (stereo not drawn) | 7.36% |
| NC(=O)NC1CCN(Cc2ccc(Br)c(F)c2)CC1 | -5.43% |
| CNC(=O)CCc1cc(C)nc(C2CCN(c3cnccn3)CC2)c1 | 0.777% |
| CCOc1ccc(C(=O)NS(=O)(=O)c2cncc(Br)c2)cc1OC | 18.9% |
| CN1CCC(c2[nH]ncc2S(C)(=O)=O)CC1 | -7.29% |
| Cn1ccnc1CN1CCCN(C(=O)c2ccc3cc[nH]c3c2)CC1 | -7.08% |
| COCCN1CCC2(CC1)C(=O)Nc1ccc(C(=O)NC(C)C)cc12 | 1.35% |
| O=C(C1CCOc2ccccc21)N1CCOc2ccc(F)cc21 (stereo not drawn) | -9.88% |
| CN1CCCC(c2ccc(N3CCOCC3)cn2)C1 (stereo not drawn) | -3.9% |
| COc1ccc(Nc2nc(N)c(C(C)=O)s2)cc1OC | -12.7% |
| O=C(COCc1ccccc1)N1CCCn2cncc2C1 | -4.83% |
| N#Cc1ccccc1CN1C[C@@H]2CC[C@H](C1)N(Cc1cscn1)C2=O | -11.1% |
| COc1cc(N2CCC3(CC2)CN(CCO)c2ccccc23)ncn1 | -0.577% |
| Cc1cccc(C(=O)Nc2cccc3c2C(=O)NC3)n1 | -5.67% |
| CC(C)N1CCC(CC(=O)NCCc2cc(O)ncn2)CC1 | -11.7% |
| O=C(O)c1ccccc1-c1ccc(CNC(=O)C2CCOCC2)cc1 | -4.99% |
| Cn1cc(C(=O)CC2CCCN2C(=O)c2ccc(Cl)o2)cn1 (stereo not drawn) | 2.73% |
| Cc1cccnc1CN1CCN(C(=O)c2cc(Cl)c[nH]c2=O)CC1 | 8.42% |
| Cc1ccoc1C(=O)N1C[C@@H](OCC2CCOCC2)[C@H]2OCCC[C@H]21 | 8.35% |
| Cc1ccc(C2CCCN2S(=O)(=O)N(C)Cc2cnccn2)o1 (stereo not drawn) | -3.89% |

| SMILES | cytotoxicity at 70.5 h |
| --- | --- |
| Cc1nc(N2CCCC2)nc2c1CCN(Cc1nccn1C)CC2 | -10.2% |
| O=C(C1CCC1)N1C[C@@H]2CN(c3ccccc3)C(=O)[C@@H]2C1 | 11% |
| Cc1nc(C)n(CC2CN(CC(=O)NC3CCCC3)CCO2)n1 (stereo not drawn) | -7.31% |
| CC(C)N(C)[C@@H]1CCN(C(=O)c2ccc[nH]2)[C@H]1Cc1cnn(C)c1 | -8.9% |
| CCOc1cc(CNc2nnn(C)n2)ccc1OCc1ccc(Cl)cc1 | -10.2% |
| CCN(CC)CC(=O)N1CCCC1Cn1cccn1 (stereo not drawn) | -4.89% |
| Cc1ccc(S(=O)(=O)Nc2c(C)nc(N3CCCC3)nc2C)cc1 | -2.23% |
| O=C1CN(CC[C@@H](O)c2ccccc2)CCN1c1ccccc1Cl | -7.1% |
| Cc1cccc(C(=O)N2C[C@@H]3COC[C@@H](CC(=O)N4CCCC4)[C@@H]3C2)n1 | 4.3% |
| Cn1cnnc1C1CCCN(C(=O)NCCNc2ccccn2)C1 (stereo not drawn) | -15.9% |
| CNC(=O)c1cccc(C2CNCCN2C(=O)C2CCNCC2)c1 (stereo not drawn) | -5.44% |
| O=C(O)[C@@H]1CN(Cc2ccc3nsnc3c2)C[C@H]1c1cccnc1 | 1.8% |
| COc1c(CNCc2cccc(CS(C)(=O)=O)c2)c(C)nn1C | -17% |
| CC1(C)CNC(=O)c2nc(CCN3CCC(O)CC3)[nH]c2C1 | -1.47% |
| CCOCc1nc(N2CCCC2)sc1C(=O)NCCC(=O)OCC | -6% |
| CC(C)c1nc(C2CCCN(C(=O)CCc3cscn3)C2)no1 (stereo not drawn) | -2.82% |
| CN(C)c1ccc(NC(=O)N2CCCCCC2c2ccncc2)cn1 (stereo not drawn) | -10.6% |
| Cc1ccc(C(O)CNC(=O)NCc2c(C)cc(C)[nH]c2=O)cc1 (stereo not drawn) | -9.83% |
| O=C(CCC1CCCC1)N1CCC(O)(C(F)(F)F)C1 (stereo not drawn) | -0.869% |
| CS(=O)(=O)CC1(CNc2c(C#N)cnc3ccc(Cl)cc23)CC1 | -5.19% |
| O=C(CN1CCCCC1Cn1cncn1)NCCc1ccsc1 (stereo not drawn) | 9.35% |
| O=C(CN1CCCC1Cn1cncn1)NCCOc1ccc(F)cc1 (stereo not drawn) | -0.118% |
| Cc1ccccc1N1CCCN(C(=O)CCc2cccnc2)CC1 | 0.239% |

| SMILES | cytotoxicity at 70.5 h |
| --- | --- |
| COc1cc(C2CC(=O)Nc3c2cnn3C)ccc1O (stereo not drawn) | 46.1% |
| CSCCCN1CCCC(Cn2ccnc2)C1 (stereo not drawn) | -11.5% |
| COc1cncc(-n2nc(C)c(CC(C)=O)c2C)c1 | 0.266% |
| CCCC(=O)NCc1cccc(C(=O)OC)c1 | -9.06% |
| Cc1nc(CN2CCC3(CCCN(Cc4ccncc4)C3)C2=O)cs1 (stereo not drawn) | -11.1% |
| Cc1cc(CN(C)C2CCCN(c3cccnn3)C2)no1 (stereo not drawn) | -9.99% |
| CC(=O)N(Cc1noc(C)n1)C1CCN(Cc2cccc(C#N)c2)C1 (stereo not drawn) | 30.1% |
| CS(=O)(=O)CCC(=O)N1CCC2(CCCN(C3CCOCC3)C2=O)C1 (stereo not drawn) | -9.61% |
| COc1ncc(-c2nccn2C(C)CCn2cccn2)cn1 (stereo not drawn) | 2.54% |
| O=C(C1CCOCC1)N1C[C@H](OCc2cccnc2)[C@H]2COC[C@H]21 | -5.49% |
| COc1cccc([C@@H]2CN(C3CSCCSC3)C[C@H]2C(=O)O)c1 | -1.5% |
| Cc1cccc(O[C@H]2COCCN(C3CCOCC3)C2)n1 | -9.61% |
| O=C1CC2(CCCNC2)C(=O)N1Cc1cccc(Cl)c1 (stereo not drawn) | 29.4% |
| CC(O)CNC(=O)CCc1nc2ncccc2[nH]1 (stereo not drawn) | -29.9% |
| CC(=O)N[C@@H]1CN(C(=O)CC2CCOCC2)C[C@H]1O | -1.61% |
| CCN1CCN(CC(C)(O)c2cccc(C(F)(F)F)c2)CC1 (stereo not drawn) | -10.9% |
| Cc1ccc(CNC(=O)c2nc3c(n2C)CCN(c2ncccn2)C3)o1 | -1.28% |
| CCOCCN(C)C(=O)Nc1cccc2c1CCN(CC)C2 | 10.2% |
| Cn1cnnc1CN1CCC2(CCC(=O)N(Cc3ccccn3)C2)CC1 | -6.09% |
| Cn1nc2c(cc1=O)CN(CCCOc1ccc(C#N)cc1)CC2 | -5.17% |
| O=C(Cc1ccc(Cl)cc1)N[C@@H]1CCC[C@@H](O)[C@@H]1O | -0.327% |
| N#Cc1c(N)nc2c(c1-c1c[nH]nc1C1CCCCC1)CNCC2 | 18.5% |
| Cn1nccc1CCC(=O)N1CCC(c2cnccn2)CC1 | -13.1% |

| SMILES | cytotoxicity at 70.5 h |
| --- | --- |
| COc1nn(C)cc1C(=O)NCC(=O)Nc1cccnc1 | -10.6% |
| Cc1nc2ccccc2n1CCNCc1cccc(C#N)c1 | -14.8% |
| CC(C)(C)n1ncc2c1CCCC2NCc1cccc2c1OCO2 (stereo not drawn) | -1.84% |
| COc1cc(F)ccc1N1CCN(Cc2nnc(C3CC3)o2)CC1 | -14.9% |
| CSCc1noc(CNC(=O)C2CCN(C(=O)C3CCCC3)CC2)n1 | -10.6% |
| Cc1nn(C)c2nc(N3CCNC(=O)C3C(C)C)sc12 (stereo not drawn) | 10.4% |
| Cc1nc(N(C)C2CCCCC2)ncc1C(C)NC(=O)c1cscn1 (stereo not drawn) | 1.66% |
| O=C(CN1CCc2sccc2C1)Nc1nccs1 | -18.3% |
| CCC(=O)Nc1ccc(OCC(=O)N(C)C(C)c2ccon2)cc1 (stereo not drawn) | -18.6% |
| O=C(NCc1ccccc1CN1CCC(O)CC1)Nc1cccnc1 | -4.5% |
| CNC(=O)c1cn[nH]c1C1CCCN1c1nc(C)cc(C)n1 (stereo not drawn) | -3.88% |
| O=C1CSC(c2ccc3c(c2)OCO3)c2cnn(C3CCCCC3)c2N1 (stereo not drawn) | -13.7% |
| O=C(c1cccnc1)N1C[C@@H]2CN(CCN3CCCC3)C(=O)[C@@H]2C1 | -6.24% |
| CCc1nc(CCNC(=O)C2CCOC2)sc1C (stereo not drawn) | -2.78% |
| CN(C)C(=O)C1CN(Cc2cscn2)CCN(S(C)(=O)=O)C1 (stereo not drawn) | 7.94% |
| CC(C)OC(=O)N1CCC(c2nnc(Cn3ccnc3)n2C)CC1 | 20.7% |
| Cc1cnn(CC2CCCCN2C(=O)CCCc2nc(C)no2)c1 (stereo not drawn) | -5.29% |
| O=c1c2cn[nH]c2nc(SCCN2CCCC2)n1-c1ccccc1 | -6.58% |
| CCn1cc(NC(=O)CN2C(=O)CC(C)(C)c3ccccc32)cn1 | -4.43% |
| O=C(Cn1cc(-n2cccc2)cn1)NCC1CCC1 | -10.7% |
| COc1ccc(COCC(O)CN2CCC(c3ccn[nH]3)CC2)cc1 (stereo not drawn) | -8.27% |
